Measured values reported in PubChem BioAssay AID2060614 (Molecular Pharmacology Branch, DTP, NCI, 2025).

System: 598228-144-R-J1-PDC complex spheroids, viability
Experiment: Anticancer human tumor 598228-144-R-J1-PDC patient-derived serous endometrial adenocarcinoma cell line growth inhibition [CLK]
Settings: for IC50: curve of first compound; for viability, T/C: stronger effect = lower value
Summary of the method: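 Multi-cell-type spheroids combined patient-derived tumor cells with HUVEC endothelial cells and human mesenchymal stem cells. Paired agents were dosed in half-log steps down from about clinical Cmax, or from 10 microM where Cmax was unknown.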
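Further: spheroids exposed to compounds for seven days before readout.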
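Wherever viability, T/C is given: 100% = DMSO vehicle control wells.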

- IC50 (second compound 0.0316 µM): > 10 µM
- IC50 (second compound 0.1 µM): > 10 µM
- IC50 (second compound 0.316 µM): > 10 µM
- IC50 (second compound 1 µM): > 10 µM
- IC50 (second compound 3.16 µM): > 10 µM
- IC50 (second compound 10 µM): > 10 µM
Structure (SMILES): O=C(c1cc(Cc2n[nH]c(=O)c3ccccc23)ccc1F)N1CCN(C(=O)C2CC2)CC1 + CNC(=O)c1ccc(Nc2nc(OC3CCCC3)c3c(-c4ccc5nc(C)oc5c4)c[nH]c3n2)c(OC)c1
- viability, T/C (second compound 0.0316 µM, first compound 0.0316 µM): 112%
- viability, T/C (second compound 0.0316 µM, first compound 0.1 µM): 125%
- viability, T/C (second compound 0.0316 µM, first compound 0.316 µM): 115%
- viability, T/C (second compound 0.0316 µM, first compound 1 µM): 129%
- viability, T/C (second compound 0.0316 µM, first compound 3.16 µM): 124%
- viability, T/C (second compound 0.0316 µM, first compound 10 µM): 113%
- viability, T/C (second compound 0.1 µM, first compound 0.0316 µM): 129%
- viability, T/C (second compound 0.1 µM, first compound 0.1 µM): 127%
- viability, T/C (second compound 0.1 µM, first compound 0.316 µM): 106%
- viability, T/C (second compound 0.1 µM, first compound 1 µM): 129%
- viability, T/C (second compound 0.1 µM, first compound 3.16 µM): 127%
- viability, T/C (second compound 0.1 µM, first compound 10 µM): 105%
- viability, T/C (second compound 0.316 µM, first compound 0.0316 µM): 112%
- viability, T/C (second compound 0.316 µM, first compound 0.1 µM): 130%
- viability, T/C (second compound 0.316 µM, first compound 0.316 µM): 111%
- viability, T/C (second compound 0.316 µM, first compound 1 µM): 118%
- viability, T/C (second compound 0.316 µM, first compound 3.16 µM): 117%
- viability, T/C (second compound 0.316 µM, first compound 10 µM): 113%
- viability, T/C (second compound 1 µM, first compound 0.0316 µM): 121%
- viability, T/C (second compound 1 µM, first compound 0.1 µM): 101%
- viability, T/C (second compound 1 µM, first compound 0.316 µM): 99%
- viability, T/C (second compound 1 µM, first compound 1 µM): 115%
- viability, T/C (second compound 1 µM, first compound 3.16 µM): 123%
- viability, T/C (second compound 1 µM, first compound 10 µM): 94%
- viability, T/C (second compound 3.16 µM, first compound 0.0316 µM): 114%
- viability, T/C (second compound 3.16 µM, first compound 0.1 µM): 102%
- viability, T/C (second compound 3.16 µM, first compound 0.316 µM): 108%
- viability, T/C (second compound 3.16 µM, first compound 1 µM): 97.6%
- viability, T/C (second compound 3.16 µM, first compound 3.16 µM): 106%
- viability, T/C (second compound 3.16 µM, first compound 10 µM): 117%
- viability, T/C (second compound 10 µM, first compound 0.0316 µM): 98.5%
- viability, T/C (second compound 10 µM, first compound 0.1 µM): 97.8%
- viability, T/C (second compound 10 µM, first compound 0.316 µM): 92.6%
- viability, T/C (second compound 10 µM, first compound 1 µM): 121%
- viability, T/C (second compound 10 µM, first compound 3.16 µM): 109%
- viability, T/C (second compound 10 µM, first compound 10 µM): 104%
